No end group written: not given here.
How the values were obtained:
[1] = test system: HUVECs; assay: MTT cytotoxicity assay; format: cell-based, human; conditions: 0.1 μM, 0.5 μM, 1.0 μM and 2.0 μM, incubated overnight
Experimental: HUVECS (PromoCell, Heidelberg, Germany) were cultured in endothelial basal medium 2 (EBM) supplemented with Supplement Mix (PromoCell) containing 2% fetal bovine serum (FBS). The Supplement Mix consisted of 5 ng/mL epidermal growth factor (EGF), 10 ng/ml basic fibroblast growth factor (bFGF), 20 ng/mL insulin-like growth factor (IGF), 0.5 ng/mL VEGF, 1 ug/mL ascorbic acid, 22.5 ug/mL heparin, and 0.2 ug/mL hydrocortisone. In some experiments, cells were cultured in EBM medium supplemented with Supplement Mix, and cells between passages 2 and 7 were used in all experiments. Cells were cultured for 24 hours in a 5% CO2 incubator at a 37° C.
HUVECs were seeded at a density of 10,000 cells in 96-well plates (SPL, Korea) and incubated overnight with EBM-2 medium containing visfatin (1,000 ng/ml) and each of the peptides with the highest affinity, obtained from docking simulation, in a 5% CO2 incubator at 37° C. MIT reagent (Sigma-Aldrich) was added to each well to a final concentration of 0.5 mg/ml. After 4 hours, the medium was removed, the formazan crystals formed in the cells were dissolved in dimethyl sulfoxide (DMSO), and the absorbance of the formazan solution was measured at a wavelength of 540 nm using a Synergy HTX Multi-Mode Reader (BIO-TEK, Vermont, USA). Each sample was assayed in triplicate. […]

[2] = test system: HUVECs; assay: Blood vessel (tube) formation assay on Matrigel; format: cell-based, human; conditions: 4 hours, vs. control
Experimental: HUVECs (20,000 cells/well) were seed on a layer of previously polymerized Matrigel and treated with or without the first peptide and the second peptide. The Matrigel culture was incubated at 37° C. After 4 hours, changes in cell morphology were captured using a phase-contrast microscope (×40). Each sample was assayed in duplicate, and independent experiments were repeated three times. *P<0.05, **P,0.01, ***P<0.001 (vs. control).
HUVECs (20,000 cells/well) were seeded on a layer of previously polymerized Matrigel, treated with the visfatin-derived peptides, and then incubated in a 5% CO2 incubator at 37° C. for 4 hours. Then, changes in the cell morphology were observed and photographed using a phase-contrast microscope at 40× magnification. Each sample was assayed in duplicate, and independent experiments were repeated three times. Angiogenesis was analyzed with ImageJ software using an angiogenesis analyzer (Bethesda, MD, USA).

Row | Substance | cell viability of HUVECs (cytotoxicity) [1] | number of master junctions (tube formation) ([2]; second peptide except at the 2.0 μM concentration) | number of meshes (tube formation) ([2]; positive controls)
1 | EYKLHDFGYRGV [Peptide 2, EYKLHDFGYRGV] | did not affect the viability of the cells |  | 
2 | LEYKLHDFGY [Peptide 1, LEYKLHDFGY] | did not affect the viability of the cells |  | 
3 | basic fibroblast growth factor [bFGF] |  | significantly increased | not significantly changed
